Where no end group is shown, it is not given here.
Assays:
CT26 tumor cells = experiment: Anti-tumor vaccination experiment (AH1 in IFA), CT26 challenge; format: in vivo, BALB/c
Method: For anti-tumor vaccination experiments, BALB/c animals immunized with 50 nanomol/mice of peptide AH1 emulsified in incomplete Freund adjuvant (IFA) (Casares et al., 2010, supra), were treated intraperitoneally with 10 nanomol/mice of the indicated Treg inhibitory peptide SEQ ID NO: 51 of the invention or with saline daily during 10 days. At day 10, mice were injected s.c. with 10^6 CT26 tumor cells. Tumor size was monitored twice a week with a calliper and it was expressed according to the formula V=(length×width2)/2. Mice were sacrificed when tumor size reached a volume greater than 4 cm^3.

[1] = Human liver microsomal stability; format: in vitro ADME; conditions: human liver microsomes
Method: (§1) The data collected were analyzed to calculate a half-life (t1/2, min) for tested peptides at a final concentration of 1 μM. Briefly, 5 μL of stock solution of tested peptide (10 mM) were diluted in 495 μL of 1:1 Methanol/Water (final concentration of 100 μM, 50% MeOH). Then, 50 μL of this intermediate solution were diluted in 450 μL of 100 mM potassium phosphate buffer to a concentration of 10 μM (working solution, 5% MeOH). The NADPH regenerating system contains β-Nicotinamide adenine dinucleotide phosphate (Sigma, Cat. # N0505), Isocitric acid (Sigma, Cat. #11252) and Isocitric dehydrogenase (Sigma, Cat. #12002) at a final concentration of 1 unit/mL at incubation.
(§2) Human liver microsomes were obtained from BD Gentest (Cat. #452117) and mouse liver microsomes from Xenotech (Cat. # M1000), to a final concentration of 0.7 mg protein/mL. A volume of 10 μL of peptide solution and 80 μL of microsome solution were added to a 96-well plate and incubated for 10 min at 37° C. The reaction was started by the addition of 10 μL of NADPH regenerating system and stopped by the addition of 300 μL of stop solution (ACN at 4° C., including 100 ng/mL Tolbutamide and 100 ng/mL of Labetalol as internal standard) at different incubation times (0, 5, 10, 20, 30 and 60 min). Concentrations of test compound were quantified by LC-MS/MS methodologies (Shimadzu LC 20-AD/API4000) using peak area ratio of analyte/internal standard and the percent loss of parent compound was calculated under each time point to determine the half-life.

[2] = Mouse liver microsomal stability; format: in vitro ADME; conditions: mouse liver microsomes
Method: as §1, §2

human FOXP3 (FOXP3-6His) = molecular target: T1, human FOXP3 (FOXP3-6His) (Homo sapiens, UniProt Q9BZS1); experiment: Peptide binding to FOXP3 by surface plasmon resonance (SPR)
T1 construct: 6xHis (C); made in house; host or cells: E. coli BL21 (DE3)
T1 sequence (Q9BZS1 1-431): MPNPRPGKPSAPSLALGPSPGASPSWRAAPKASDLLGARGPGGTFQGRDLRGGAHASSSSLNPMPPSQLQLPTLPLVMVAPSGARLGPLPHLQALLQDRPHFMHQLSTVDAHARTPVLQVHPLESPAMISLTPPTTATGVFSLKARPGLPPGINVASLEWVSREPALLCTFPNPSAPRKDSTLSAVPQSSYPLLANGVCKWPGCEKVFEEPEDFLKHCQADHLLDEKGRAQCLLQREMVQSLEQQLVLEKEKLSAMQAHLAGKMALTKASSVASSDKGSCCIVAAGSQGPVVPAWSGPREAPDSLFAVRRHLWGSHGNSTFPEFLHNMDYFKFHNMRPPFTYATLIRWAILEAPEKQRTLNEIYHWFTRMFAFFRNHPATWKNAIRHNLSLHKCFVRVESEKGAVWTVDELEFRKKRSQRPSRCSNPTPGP
Summary of the method: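 C-terminally 6His-tagged human FOXP3, expressed in E. coli BL21(DE3) and Ni-affinity purified, was amine-coupled to a GLM chip (ProteOn XPR36). Peptides at 1–20 μM injected in triplicate in PBS, 0.005% Tween 20, pH 7.4, at 30 μl/min, with interspot reference. Binding given as ratio to reference peptide p60.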

Hepa-129 cells = experiment: Tumor rejection experiment, Hepa-129 cells s.c.; format: in vivo, C3H/HeN mice; conditions: peptide 50 μg/mice/day, days 10 to 20, combined with anti-PD1 antibodies
Method: For tumor rejection experiments, Hepa-129 cells (10^6 cells/mouse), were injected subcutaneously (sc) in C3H/HeN mice (n=6). Ten days later, when the tumor reached 5 mm in diameter, mice were randomly divided into different experimental groups. A group of mice were treated i.p. with anti-PD1 antibodies (BE0146, BioXcell) (50 μg/mouse). Antibody administration was repeated one week after this first administration. A group of mice treated with anti-PD1 also received the cyclic peptide SEQ ID NO: 50 from days 10 to 20 (50 μg/mice/day). Tumor size, presented as the average of two perpendicular diameters (millimeters), was measured at regular intervals. Mice were sacrificed when the mean tumor diameter was greater than 20 mm. Mice were housed in appropriated animal care facilities during the experimental period and handled following the international guidelines required for experimentation with animals. The experiments were approved by institutional ethical committee.

[3] = 20 min, read-out: % Remaining after 20 min
[4] = 60 min, read-out: % Remaining after 60 min

Which “effect on growth of CT26 colon cancer tumor” value (CT26 tumor cells; 10 nanomol/mice i.p. daily during 10 days after AH1/IFA, day 30 after injection of CT26) does the source give for “RDFQSFRKMWPFFAM [SEQ ID NO: 1, RDFQSFRKMWPFFAM, reference compound]” here?
The value was “not efficient”.

And the tumor volume (CT26 tumor cells; day 30 after injection of CT26 tumor cells)?
The tumor volume was “about 2000 mm^3”.

And the remaining at 20 min, 1 μM [1, 3]?
Its remaining at 20 min, 1 μM is 0%.

What about the remaining at 1 h, 1 μM [1, 4] of the same sequence?
The remaining at 1 h, 1 μM was 0%.

What about the half-life ([1]; peptide 1 μM, read-out: t1/2) of the same sequence?
Its half-life is < 2.5 min.

And the remaining at 20 min, 1 μM [2, 3]?
Its remaining at 20 min, 1 μM is 0%.

And the remaining at 1 h, 1 μM [2, 4]?
The remaining at 1 h, 1 μM was 0%.

What about the half-life ([2]; peptide 1 μM) of the same sequence?
The half-life was < 2.5 min.

With “RAFQAFRKMWPFFAM [SEQ ID NO: 50] (cyclo(RAFQAFRKMWPFFAM); also: R1 and R2 form a linker birradical which is -C(=O)-) [head-to-tail cyclic peptide]” as the sequence, how does the “increase in the binding to FoxP3 with respect to p60 (SEQ ID NO: 1)” value (human FOXP3 (FOXP3-6His)) read?
Its value is “more than 2100%”.

What about the antitumor activity (Hepa-129 cells) of the same sequence?
The antitumor activity was “remarkable antitumor activity”.
